Measured values: US11192850B2, “N-aryl oxamic acids” (Purdue Research Foundation, priority 2020, dated 2021)
Like-named read-outs stand apart in the source and are kept apart here.

Assays:
PTP1B = PTP1B (Homo sapiens (Human), UniProt P18031); assay: pNPP inhibition assay against PTP1B; format: biochemical; conditions: pNPP at Km of the PTP
SHP2 = SHP2 (Homo sapiens (Human), UniProt Q06124); assay: pNPP inhibition assay against SHP2; format: biochemical; conditions: pNPP at Km of the PTP
SHP1 = SHP1 (Homo sapiens (Human), UniProt P29350); assay: pNPP inhibition assay against SHP1; format: biochemical; conditions: pNPP at Km of the PTP
mPTPB = mPTPB (Mycobacterium tuberculosis (strain ATCC 25618 / H37Rv), UniProt I6WXK4); format: biochemical
[1] = Mouse liver microsomal stability; format: in vitro ADME; conditions: Mouse, after 60 min at 37° C.
Description: A sufficient oral dosage must survive first-pass clearance through the liver before reaching its biological target. The majority of drugs/xenobiotics undergo phase I metabolism, mediated by the cytochrome P450 (CYP450) family of heme-thiolate proteins predominantly in the liver. Although mouse liver microsomal (MLM) stability studies are not a perfect substitute for in vivo metabolic clearance studies, but they serve as an initial […] model system that can correlate well with human liver microsomal (HLM) stability and in vivo activity in mice. To this end, compounds 4h, 4k, 4t, 4u, and 4v were allowed to react with mouse liver microsomes and the fraction of remaining parent compound over time was determined. […] Incorporation of fluorine into drug candidates generally improves their potency, bioavailability, and metabolic stability. In addition, fluorinated molecules are in general, nontoxic and mimic the corresponding nonfluorinated analogs in their stereoelectronic properties, so the drug's affinity for the receptor either remains the same or, in some cases increases. […] So, the loss of compounds tested here is attributed only to oxidative Phase I metabolism. The high microsomal stability of these compounds could be exploited pharmacologically.
Mouse (CD-1) pooled liver microsomes purchased from Fisher Scientific, IL, USA (0.5 mg/mL, Corning Gentest 3P, cat#452702), and the assay procedures were followed as previously reported. A solution of mouse liver microsomes and 1 mM of co-factor NADPH in 1 ml of phosphate buffer saline (pH=7.4) was prewarmed to 37° C. in an Eppendorf tube. Then 10 μL of a test solution (10 mM DMSO stock) was added to initiate the reaction. Verapamil-HCl was used as a positive control. […] The incubation mixture was kept at 37° C., and 50 μL aliquots were taken at times of 0, 5, 10, 15, 30 or 60 min. Each of the aliquot was quenched using 200 μL of ice-cold acetonitrile. The mixtures were vigorously vortexed and centrifuged to remove the precipitated protein and the supernatants were analyzed by an Agilent Technologies 6470 series, triple quadrupole LC/MS spectrometer to quantitate the remaining parent compound. The percent of the parent compound remaining was calculated from the formula: % parent compound remaining=(concentration at 60 min/concentration at 0 min)*100

[2] = pNPP assay, pH 7.0, 3.0 mM pNPP

Chain of SHP2 (Q06124 247-517): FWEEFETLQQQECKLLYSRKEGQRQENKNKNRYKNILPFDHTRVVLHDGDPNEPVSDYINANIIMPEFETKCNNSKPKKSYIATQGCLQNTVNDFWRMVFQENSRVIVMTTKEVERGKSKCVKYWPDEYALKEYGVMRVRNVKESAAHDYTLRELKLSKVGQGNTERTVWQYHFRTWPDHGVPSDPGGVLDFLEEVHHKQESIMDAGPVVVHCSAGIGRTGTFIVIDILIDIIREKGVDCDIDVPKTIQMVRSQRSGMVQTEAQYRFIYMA
Chain of mPTPB (I6WXK4 whole entry, looked up): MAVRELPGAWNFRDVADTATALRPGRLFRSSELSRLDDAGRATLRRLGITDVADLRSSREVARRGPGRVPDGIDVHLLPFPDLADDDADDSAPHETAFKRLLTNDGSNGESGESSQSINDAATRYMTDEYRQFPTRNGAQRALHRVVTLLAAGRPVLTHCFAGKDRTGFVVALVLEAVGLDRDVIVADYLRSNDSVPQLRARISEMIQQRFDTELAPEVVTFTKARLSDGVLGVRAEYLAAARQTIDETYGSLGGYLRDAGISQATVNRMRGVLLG
Chain of SHP1 (P29350 244-515): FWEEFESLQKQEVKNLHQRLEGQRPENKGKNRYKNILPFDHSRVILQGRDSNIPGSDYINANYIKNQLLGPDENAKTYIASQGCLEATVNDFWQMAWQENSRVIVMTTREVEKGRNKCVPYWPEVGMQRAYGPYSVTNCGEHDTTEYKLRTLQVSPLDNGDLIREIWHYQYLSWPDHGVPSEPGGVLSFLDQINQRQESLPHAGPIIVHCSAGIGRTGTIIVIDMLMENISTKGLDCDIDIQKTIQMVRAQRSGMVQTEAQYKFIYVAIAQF
Chain of PTP1B (P18031 3-277): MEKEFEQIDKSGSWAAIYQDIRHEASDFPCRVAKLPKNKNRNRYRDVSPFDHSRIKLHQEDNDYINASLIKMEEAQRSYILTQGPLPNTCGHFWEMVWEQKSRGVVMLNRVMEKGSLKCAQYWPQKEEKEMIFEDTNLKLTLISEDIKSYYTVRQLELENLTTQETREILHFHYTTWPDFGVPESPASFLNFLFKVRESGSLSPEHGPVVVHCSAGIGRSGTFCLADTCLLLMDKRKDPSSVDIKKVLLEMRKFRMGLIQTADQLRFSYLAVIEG

Row | SMILES | IC50 (PTP1B) | IC50 (SHP2) | IC50 (SHP1) | IC50 (mPTPB) | fold more potency compared to the meta derivative 5 (mPTPB) | IC50 (mPTPB; [2]) | difference in IC50 values with and without Triton X-100 and with preincubation (mPTPB) | Microsome Stability, % remaining [1] | fold less potency compared to corresponding alkyne analogs 4 and 4k (mPTPB)
1 | O=C(O)C(=O)Nc1ccccc1 [Compound 1, Oxanilic Acid] | > 100 µM | > 100 µM |  |  |  |  |  |  | 
2 | C#Cc1ccc(NC(=O)C(=O)O)cc1 [Compound 2, 2-((4-ethynylphenyl)amino)-2-oxoacetic Acid] | > 100 µM | > 100 µM |  |  |  |  |  |  | 
3 | CC(C)(C)OC(=O)NCC#Cc1ccc(NC(=O)C(=O)O)cc1 [Compound 3, 2-((4-(3-((tert-butoxycarbonyl)amino)prop-1-yn-1-yl)phenyl)amino)-2-oxoacetic Acid] | > 100 µM | 58 ± 2 µM |  |  |  |  |  |  | 
4 | O=C(O)C(=O)Nc1ccc(C#Cc2ccccc2)cc1 [Compound 4, 2-oxo-2-((4-(phenylethynyl)phenyl)amino)acetic Acid] | > 100 µM | > 100 µM | > 100 µM | 0.257 ± 0.008 µM | 2 fold |  |  |  | 
5 | COC(=O)c1ccc(C#Cc2ccc(NC(=O)C(=O)O)cc2)cc1 [Compound 4a, 2-((4-((4-(methoxycarbonyl)phenyl)ethynyl)phenyl)amino)-2-oxoacetic Acid] | > 100 µM | 52.6 ± 6.4 µM | > 100 µM |  |  | 0.023 ± 0.004 µM |  |  | 
6 | COC(=O)c1cc(C#Cc2ccc(NC(=O)C(=O)O)cc2)ccc1O [Compound 4b, 2-((4-((4-hydroxy-3-(methoxycarbonyl)phenyl)ethynyl)phenyl)amino)-2-oxoacetic Acid] | > 50 µM | 27.3 ± 3.3 µM | > 50 µM |  |  | 0.025 ± 0.003 µM |  |  | 
7 | COC(=O)c1ccc(C#Cc2ccc(NC(=O)C(=O)O)cc2)cc1O [Compound 4c, 2-((4-((3-hydroxy-4-(methoxycarbonyl)phenyl)ethynyl)phenyl)amino)-2-oxoacetic Acid] | > 50 µM | > 50 µM | > 50 µM |  |  |  |  |  | 
8 | COC(=O)c1cc(C#Cc2ccc(NC(=O)C(=O)O)cc2)c(N(C)C)cc1O [Compound 4d, 2-((4-((2-(dimethylamino)-4-hydroxy-5-(methoxycarbonyl)phenyl)ethynyl)phenyl)amino)-2-oxoacetic Acid] | > 50 µM | > 50 µM | > 50 µM |  |  | 0.03 ± 0.009 µM |  |  | 
9 | COC(=O)c1cc(C#Cc2cccc(NC(=O)C(=O)O)c2)c(N(C)C)cc1O [Compound 4e, 2-((3-((2-(dimethylamino)-4-hydroxy-5-(methoxycarbonyl)phenyl)ethynyl)phenyl)amino)-2-oxoacetic Acid] | > 50 µM | > 50 µM | > 50 µM |  |  |  |  |  | 
10 | CN(C)c1cc(O)c(C(=O)O)cc1C#Cc1ccc(NC(=O)C(=O)O)cc1 [Compound 4f, 5-((4-(carboxyformamido)phenyl)ethynyl)-4-(dimethylamino)-2-hydroxybenzoic Acid] | > 100 µM | 78.5 ± 4.2 µM | 59.3 ± 6 µM |  |  | 0.09 ± 0.008 µM |  |  | 
11 | O=C(O)C(=O)Nc1ccc(C#Cc2ccc(OC(F)(F)F)cc2)cc1 [Compound 4i, 2-oxo-2-((4-((4-(trifluoromethoxy)phenyl)ethynyl)phenyl)amino)acetic Acid] | > 50 µM | > 50 µM | > 50 µM |  |  |  |  |  | 
12 | O=C(O)C(=O)Nc1ccc(C#Cc2cccc(C(F)(F)F)c2)cc1 [Compound 4j, 2-oxo-2-((4-((3-(trifluoromethyl)phenyl)ethynyl)phenyl)amino)acetic Acid] | 29.5 ± 4.1 µM | > 50 µM | > 50 µM |  |  |  |  |  | 
13 | NS(=O)(=O)c1ccc(C#Cc2ccc(NC(=O)C(=O)O)cc2)cc1 [Compound 4l, 2-oxo-2-((4-((4-sulfamoylphenyl)ethynyl)phenyl)amino)acetic Acid] | > 50 µM | > 50 µM | 29.9 ± 3.3 µM |  |  |  |  |  | 
14 | O=C(O)C(=O)Nc1ccc(C#Cc2ccc(O)cc2)cc1 [Compound 4m, 2-((4-((4-hydroxyphenyl)ethynyl)phenyl)amino)-2-oxoacetic Acid] | > 50 µM | > 50 µM | > 50 µM |  |  |  |  |  | 
15 | O=C(O)C(=O)Nc1ccc(C#Cc2ccc(O)c(Br)c2)cc1 [Compound 4n, 2-((4-((3-bromo-4-hydroxyphenyl)ethynyl)phenyl)amino)-2-oxoacetic Acid] | > 50 µM | 44.5 ± 3.4 µM | > 50 µM |  |  |  |  |  | 
16 | N#Cc1ccc(C#Cc2ccc(NC(=O)C(=O)O)cc2)cc1 [Compound 4o, 2-((4-((4-cyanophenyl)ethynyl)phenyl)amino)-2-oxoacetic Acid] | > 50 µM | > 50 µM | > 50 µM |  |  |  |  |  | 
17 | O=C(O)C(=O)Nc1ccc(C#Cc2cc(C(F)(F)F)cc(C(F)(F)F)c2)cc1 [Compound 4p, 2-((4-((3,5-bis(trifluoromethyl)phenyl)ethynyl)phenyl)amino)-2-oxoacetic Acid] | > 50 µM | > 50 µM | > 50 µM | 0.06 ± 0.009 µM |  |  | no significant difference |  | 
18 | CC(C)(C)OC(=O)Nc1ccc(C#Cc2ccc(NC(=O)C(=O)O)cc2)cc1 [Compound 4s, 2-((4-((4-((tert-butoxycarbonyl)amino)phenyl)ethynyl)phenyl)amino)-2-oxoacetic Acid] | > 50 µM | > 50 µM | > 50 µM |  |  |  |  |  | 
19 | O=C(O)C(=O)Nc1ccc(C#Cc2ccc(C(F)(F)F)cc2Br)cc1 [Compound 4u, 2-((4-((2-bromo-4-(trifluoromethyl)phenyl)ethynyl)phenyl)amino)-2-oxoacetic Acid] | 16.4 ± 2.9 µM | 15.2 ± 3.4 µM | 33.8 ± 6.8 µM |  |  |  |  | 60 ± 3.8% | 
20 | O=C(O)C(=O)Nc1ccc(C#Cc2ccc(C(F)(F)F)cc2F)cc1 [Compound 4v, 2-((4-((2-fluoro-4-(trifluoromethyl)phenyl)ethynyl)phenyl)amino)-2-oxoacetic Acid] | > 30 µM | > 30 µM | > 30 µM |  |  |  |  | 72 ± 2.8% | 
21 | N#Cc1cc(C(F)(F)F)ccc1C#Cc1ccc(NC(=O)C(=O)O)cc1 [Compound 4w, 2-((4-((2-cyano-4-(trifluoromethyl)phenyl)ethynyl)phenyl)amino)-2-oxoacetic Acid] | 27.4 ± 6.3 µM | 10.6 ± 2.5 µM | 13.7 ± 3.1 µM |  |  |  |  |  | 
22 | O=C(O)C(=O)Nc1ccc(C#Cc2ccc(C(F)(F)F)cc2C(F)(F)F)cc1 [Compound 4x, 2-((4-((2,4-bis(trifluoromethyl)phenyl)ethynyl)phenyl)amino)-2-oxoacetic Acid] | > 30 µM | > 30 µM | > 30 µM |  |  |  |  |  | 
23 | O=C(O)C(=O)Nc1cccc(C#Cc2ccccc2)c1 [Compound 5, 2-oxo-2-((3-(phenylethynyl)phenyl)amino)acetic Acid] | > 100 µM | 69 ± 4 µM |  |  |  |  |  |  | 
24 | O=C(O)C(=O)Nc1ccc(-c2ccccc2)cc1 [Compound 6, 2-([1,1′-biphenyl]-4-ylamino)-2-oxoacetic Acid] | 62 ± 5 µM | 29 ± 8 µM |  |  |  |  |  |  | 
25 | O=C(O)C(=O)Nc1cccc(-c2ccccc2)c1 [Compound 7, 2-([1,1′-biphenyl]-3-ylamino)-2-oxoacetic Acid] | > 100 µM | > 100 µM |  |  |  |  |  |  | 
26 | O=C(O)C(=O)Nc1cnc2ccccc2c1 [Compound 8, 2-oxo-2-(quinolin-3-ylamino)acetic Acid] | > 100 µM | > 100 µM |  |  |  | > 10 µM |  |  | 
27 | O=C(O)C(=O)Nc1ccc(/C=C\c2ccccc2)cc1 [Compound 9, (Z)-2-oxo-2-((4-styrylphenyl)amino)acetic Acid] | > 30 µM | > 30 µM |  | 0.77 ± 0.015 µM |  |  |  |  | 3 fold
28 | O=C(O)C(=O)Nc1ccc(/C=C\c2ccc(C(F)(F)F)cc2)cc1 [Compound 10, (Z)-2-oxo-2-((4-(4-(trifluoromethyl)styryl)phenyl)amino)acetic Acid] | > 30 µM | > 30 µM |  | 0.684 ± 0.025 µM |  |  |  |  | 45 fold
29 | O=C(O)C(=O)Nc1ccc(CCc2ccccc2)cc1 [Compound 11, 2-oxo-2-((4-phenethylphenyl)amino)acetic Acid] | > 30 µM | > 30 µM |  | 1.27 ± 0.2 µM |  |  |  |  | 5 fold
30 | O=C(O)C(=O)Nc1ccc(CCc2ccc(C(F)(F)F)cc2)cc1 [Compound 12, 2-oxo-2-((4-(4-(trifluoromethyl)phenethyl)phenyl)amino)acetic Acid] | > 30 µM | > 30 µM |  | 0.197 ± 0.013 µM |  |  |  |  | 13 fold
